{"source": "paper PMC12316308", "about": "“Interactions of substrates and phosphinyl containing inhibitors with bacterial and human zinc proteases” (PLOS One, 2025)", "assay_in_all_cases": "Enzyme inhibition kinetics, fluorogenic substrate ES001", "assay_type_in_all_cases": "biochemical", "key": {"[1]": {"biological_target": "T1, human MT1-MMP/MMP-14 (catalytic domain) (Homo sapiens, UniProt P50281)", "T1 construct": "human MT1-MMP/MMP-14 (catalytic domain); purchased Calbiochem (San Diego, CA, USA)", "conditions": "for remaining activity at 0.01 µM: log [H1] (M) -8; for remaining activity at 0.0001 µM: log [H1] (M) -10"}, "[2]": {"biological_target": "T2, APMA activated MMP-9 (MMP-9(A)) (Homo sapiens, UniProt P14780)", "T2 construct": "made in house; host or cells: Sf9 and High Five insect cells", "T2 sequence (P14780 107-707 limits assumed)": "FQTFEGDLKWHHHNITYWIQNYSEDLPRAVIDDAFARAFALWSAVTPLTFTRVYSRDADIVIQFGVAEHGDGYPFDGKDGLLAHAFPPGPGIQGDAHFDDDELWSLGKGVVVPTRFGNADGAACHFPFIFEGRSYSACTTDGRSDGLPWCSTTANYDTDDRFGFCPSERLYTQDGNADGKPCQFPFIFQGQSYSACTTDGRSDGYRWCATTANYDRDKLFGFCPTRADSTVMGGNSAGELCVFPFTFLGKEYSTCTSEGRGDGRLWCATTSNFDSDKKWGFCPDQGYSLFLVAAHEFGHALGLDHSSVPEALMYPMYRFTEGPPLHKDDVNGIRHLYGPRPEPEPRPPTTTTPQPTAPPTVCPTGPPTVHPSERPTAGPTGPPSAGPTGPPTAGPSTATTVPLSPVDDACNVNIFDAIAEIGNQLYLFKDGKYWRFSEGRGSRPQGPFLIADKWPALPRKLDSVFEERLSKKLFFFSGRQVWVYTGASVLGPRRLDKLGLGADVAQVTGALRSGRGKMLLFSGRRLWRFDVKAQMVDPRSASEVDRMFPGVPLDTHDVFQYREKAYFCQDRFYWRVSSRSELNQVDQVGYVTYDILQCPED", "conditions": "for Vi/V0 AVG: APMA activated MMP-9, average", "summary_of_the_method": "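Recombinant full-length proMMP-9 expressed in insect cells was auto-activated with APMA and titrated with galardin. Activity at 0.05 nM enzyme was measured using 4.0 µM fluorogenic substrate ES001 in 100 µL 0.1 M Hepes pH 7.5 containing 10 mM CaCl2, 0.005% Brij-35 and 1.0% DMSO. Initial rates were followed at 37°C (excitation 320 nm, emission 405 nm) relative to inhibitor-free controls.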"}, "[3]": {"biological_target": "T3, Mag-Trypsin activated MMP-9 (MMP-9(MT)) (Homo sapiens, UniProt P14780)", "T3 construct": "made in house; host or cells: Sf9 and High Five insect cells", "T3 sequence (P14780 107-707 limits assumed)": "as above", "conditions": "for remaining activity at 100 µM: 100 µM inhibitor; for Vi/V0 avg: Trypsin activated MMP-9, average"}, "[4]": {"conditions": "MMP-14, log [H1] (M) -4, replicates"}, "[5]": {"conditions": "read-out: vi/v0 before correction of curve, MMP-14, replicates"}, "[6]": {"conditions": "read-out: vi/v0 corrected (v0 is the average of log -10 to log -7), MMP-14, replicates"}}, "note": "Several values for one entry are separate records, joined by “and”; a condition that tells them apart may be missing. Equal values may be shown once. Read-outs that look alike come from different tables or passages of the source."}
{"smiles": "NC(=O)C(CCC(=O)O)NC(=O)C(CCC(=O)O)NC(=O)C(Cc1cc(-c2ccc(-c3cccc(Cl)c3)cc2)no1)CP(=O)(O)c1ccc(Br)cc1", "note": "(stereo not drawn) [H-1]", "values": [{"measurement": "Ki", "setting": "[1]", "result": "0.89 ± 0.04", "unit": "µM"}, {"measurement": "remaining activity at 100 µM", "setting": "[1]; 0.25 h, read-out: vi/v0 (single replicate), MMP-14, 100 µM inhibitor, 15 min pre incubation", "result": 3.03, "unit": "%"}, {"measurement": "remaining activity at 100 µM", "setting": "[1]; 0.25 h, read-out: vi/v0 avg, MMP-14, 100 µM inhibitor, 15 min pre incubation", "result": 2.86, "unit": "%"}, {"measurement": "remaining activity at 100 µM", "setting": "[1]; 0.5 h, read-out: vi/v0 (single replicate), MMP-14, 100 µM inhibitor, 30 min pre incubation", "result": 4.56, "unit": "%"}, {"measurement": "remaining activity at 100 µM", "setting": "[1]; 0.5 h, read-out: vi/v0 avg, MMP-14, 100 µM inhibitor, 30 min pre incubation", "result": 3.15, "unit": "%"}, {"measurement": "inhibitory effect on enzymatic activity", "setting": "[1]; MMP-14, 100 μM compound, in words", "result": "strong inhibition"}, {"measurement": "vi/v0 Av (bar diagram figure 7)", "setting": "[1]; MMP-14, inhibitor 100 μM, average over preincubation times", "result": 0.03265}, {"measurement": "vi/v0 (relative enzyme activity with inhibitor), single determinations", "setting": "[1]; MMP-14, inhibitor 100 μM, preincubation 0 min", "result": "0.02699 and 0.03692 and 0.04011 and 0.0422"}, {"measurement": "vi/v0 (relative enzyme activity with inhibitor), single determinations", "setting": "[1]; MMP-14, inhibitor 100 μM, preincubation 15 min", "result": "0.03033 and 0.02659 and 0.02876"}, {"measurement": "vi/v0 (relative enzyme activity with inhibitor), single determinations", "setting": "[1]; MMP-14, inhibitor 100 μM, preincubation 30 min", "result": "0.04555 and 0.0252 and 0.02389"}, {"measurement": "vi/v0 before correction of curve", "setting": "[1]; [4]", "result": 0}, {"measurement": "vi/v0 corrected (v0 is the average of log -10 to log -7)", "setting": "[1]; [4]", "result": 0}, {"measurement": "remaining activity at 100 µM", "setting": "[1]; read-out: vi/v0 (single replicate), MMP-14, 100 µM inhibitor, no preincubation", "result": 2.7, "unit": "%"}, {"measurement": "remaining activity at 100 µM", "setting": "[1]; read-out: vi/v0 avg, MMP-14, 100 µM inhibitor, no preincubation", "result": 3.66, "unit": "%"}, {"measurement": "remaining activity at 100 µM", "setting": "[1]; read-out: vi/v0 before correction of curve, MMP-14, log [H1] (M) -4, replicates", "result": 0, "unit": "%"}, {"measurement": "remaining activity at 0.01 µM", "setting": "[1]; [5]", "result": 90.7, "unit": "%"}, {"measurement": "remaining activity at 0.0001 µM", "setting": "[1]; [5]", "result": 94.8, "unit": "%"}, {"measurement": "remaining activity at 100 µM", "setting": "[1]; read-out: vi/v0 corrected (v0 is the average of log -10 to log -7), MMP-14, log [H1] (M) -4, replicates", "result": 0, "unit": "%"}, {"measurement": "remaining activity at 0.01 µM", "setting": "[1]; [6]", "result": 91.4, "unit": "%"}, {"measurement": "remaining activity at 0.0001 µM", "setting": "[1]; [6]", "result": 95.4, "unit": "%"}, {"measurement": "Ki", "setting": "[2]", "result": "19 ± 3", "unit": "µM"}, {"measurement": "remaining activity at 100 µM", "setting": "[2]; 0.25 h, read-out: vi/v0 avg, rMMP-9 (APMA activated), 100 µM inhibitor, 15 min pre incubation", "result": 25.7, "unit": "%"}, {"measurement": "remaining activity at 100 µM", "setting": "[2]; 0.5 h, read-out: vi/v0 avg, rMMP-9 (APMA activated), 100 µM inhibitor, 30 min pre incubation", "result": 25.3, "unit": "%"}, {"measurement": "Vi/V0 AVG", "setting": "[2]; [H1] 10 μM", "result": 0.7315}, {"measurement": "Vi/V0 AVG", "setting": "[2]; [H1] 20 μM", "result": 0.5955}, {"measurement": "Vi/V0 AVG", "setting": "[2]; [H1] 30 μM", "result": 0.5816}, {"measurement": "Vi/V0 AVG", "setting": "[2]; [H1] 40 μM", "result": 0.5052}, {"measurement": "Vi/V0 AVG", "setting": "[2]; [H1] 50 μM", "result": 0.4481}, {"measurement": "Vi/V0 AVG", "setting": "[2]; [H1] 60 μM", "result": 0.4125}, {"measurement": "Vi/V0 AVG", "setting": "[2]; [H1] 70 μM", "result": 0.3558}, {"measurement": "Vi/V0 AVG", "setting": "[2]; [H1] 80 μM", "result": 0.3478}, {"measurement": "Vi/V0 AVG", "setting": "[2]; [H1] 90 μM", "result": 0.3201}, {"measurement": "Vi/V0 AVG", "setting": "[2]; [H1] 100 μM", "result": 0.265}, {"measurement": "inhibitory effect on enzymatic activity", "setting": "[2]; MMP-9(A), 100 μM compound, in words", "result": "strong inhibition"}, {"measurement": "vi/v0 Av (bar diagram figure 7)", "setting": "[2]; rMMP-9 (APMA activated), inhibitor 100 μM, average over 0, 15, 30 min preincubation", "result": 0.2424}, {"measurement": "vi/v0 (relative enzyme activity with inhibitor), single determinations", "setting": "[2]; rMMP-9 (APMA activated), inhibitor 100 μM, preincubation 0 min", "result": "0.1639 and 0.167 and 0.1831 and 0.1727 and 0.3076 and 0.251 and 0.276"}, {"measurement": "remaining activity at 20 µM", "setting": "[2]; read-out: Vi/V0, APMA activated MMP-9, [H1] 20 μM, replicate vi over each of 4 controls", "result": 59.1, "unit": "%"}, {"measurement": "remaining activity at 40 µM", "setting": "[2]; read-out: Vi/V0, APMA activated MMP-9, [H1] 40 μM, replicate vi over each of 4 controls", "result": 41.9, "unit": "%"}, {"measurement": "remaining activity at 50 µM", "setting": "[2]; read-out: Vi/V0, APMA activated MMP-9, [H1] 50 μM, replicate vi over each of 4 controls", "result": 41.4, "unit": "%"}, {"measurement": "remaining activity at 60 µM", "setting": "[2]; read-out: Vi/V0, APMA activated MMP-9, [H1] 60 μM, replicate vi over each of 4 controls", "result": 36.8, "unit": "%"}, {"measurement": "remaining activity at 70 µM", "setting": "[2]; read-out: Vi/V0, APMA activated MMP-9, [H1] 70 μM, replicate vi over each of 4 controls", "result": 33.5, "unit": "%"}, {"measurement": "remaining activity at 80 µM", "setting": "[2]; read-out: Vi/V0, APMA activated MMP-9, [H1] 80 μM, replicate vi over each of 4 controls", "result": 32.6, "unit": "%"}, {"measurement": "remaining activity at 90 µM", "setting": "[2]; read-out: Vi/V0, APMA activated MMP-9, [H1] 90 μM, replicate vi over each of 4 controls", "result": 27.8, "unit": "%"}, {"measurement": "remaining activity at 100 µM", "setting": "[2]; read-out: Vi/V0, APMA activated MMP-9, [H1] 100 μM, replicate vi over each of 4 controls", "result": 23.6, "unit": "%"}, {"measurement": "remaining activity at 100 µM", "setting": "[2]; read-out: vi/v0 (single replicate), rMMP-9 (APMA activated), 100 µM inhibitor, no preincubation", "result": 16.4, "unit": "%"}, {"measurement": "remaining activity at 100 µM", "setting": "[2]; read-out: vi/v0 avg, rMMP-9 (APMA activated), 100 µM inhibitor, no preincubation", "result": 21.7, "unit": "%"}, {"measurement": "Ki", "setting": "[3]", "result": "30 ± 4", "unit": "µM"}, {"measurement": "remaining activity at 100 µM", "setting": "[3]; 0.25 h, read-out: vi/v0 (single replicate), rMMP-9 (Mag-trypsin activated), 15 min pre incubation", "result": 38.1, "unit": "%"}, {"measurement": "remaining activity at 100 µM", "setting": "[3]; 0.25 h, read-out: vi/v0 avg, rMMP-9 (Mag-trypsin activated), 15 min pre incubation", "result": 47.9, "unit": "%"}, {"measurement": "remaining activity at 100 µM", "setting": "[3]; 0.5 h, read-out: vi/v0 (single replicate), rMMP-9 (Mag-trypsin activated), 30 min pre incubation", "result": 47.4, "unit": "%"}, {"measurement": "remaining activity at 100 µM", "setting": "[3]; 0.5 h, read-out: vi/v0 avg, rMMP-9 (Mag-trypsin activated), 30 min pre incubation", "result": 47.5, "unit": "%"}, {"measurement": "inhibitory effect on enzymatic activity", "setting": "[3]; MMP-9(MT), 100 μM compound, in words", "result": "strong inhibition"}, {"measurement": "Vi/V0 avg", "setting": "[3]; [H1] 10 μM", "result": 0.823}, {"measurement": "Vi/V0 avg", "setting": "[3]; [H1] 20 μM", "result": 0.766}]}
